# Where two headings read alike, the source gives them in different places.
# What was measured:
# [1] = molecular target: HSP90 α protein (Homo sapiens, UniProt P07900); test: HSP90 ATP-binding / fluorescence polarization competition assay (enzyme inhibition)
# Description: To assess the inhibition of HSP90 activity within a cellular context, cells were treated with certain substituted aromatic compounds of formula (I) and the inhibition of HSP90 ATP-binding activity in cells was determined by using an ATP pull-down assay. Cells were treated with the compounds for 24 hours and then lysed in TNESV buffer (50 mM Tris, 2 mM EDTA, […], 1 mM activated sodium orthovanadate, 25 mM NaF, 1% Triton X-100 [pH 7.5]) for 30 min at 4° C. Lysates were spun for 30 min at 12000 rpm at 4° C. Protein (200 ug) was incubated with conditioned γ-ATP-polyacrylamide resin in incubation buffer (10 mM Tris-HCl, 50 mM KCl, 5 mM MgCl2, 20 mM Na2MoO4, 0.01% Nonidet P-40) overnight at 4° C., rotating. The resin was then washed four times with incubation buffer. Bound proteins were isolated by boiling with SDS buffer. For the competition studies, fluorescence polarization assays were performed under the following conditions: each 96-well plate contained 5 nM fluorescent GM (geldanamycin), 30 nM HSP90 α protein, and tested inhibitor in a final volume of 100 uL. For each assay, background wells (buffer only), tracer controls (free, fluorescent GMonly), and bound GM controls (fluorescent GM in the presence of HSP90) were included on each assay plate. The fraction of tracer bound to HSP90 was correlated to the mP value and plotted against log 10 values of competitor concentrations. The inhibitor concentration at which 50% of bound GM was displaced was obtained by fitting the data.
# [2] = tested on: liver Hep3B; test: Sulforhodamine B (SRB) assay, liver Hep3B; type: cell-based; settings: Homo sapiens
# Description: (§1) Human cancer cells were purchased from the American Type Culture Collection (Manassas, Va., USA). These cell lines were cultured in RPMI 1640 medium or DMEM supplemented with 10% FBS (v/v) and pencillin (100 U/mL)/streptomycin (100 ug/mL)/amphotericin B (0.25 ug/mL). Cultures were maintained at 37° C. in a humidified atmosphere of 5% CO2/95% air.
# (§2) Cells were seeded in 96-well plates in medium with 5% fetal bovine serum. After 24 h, cells were fixed with 10% trichloroacetic acid to represent cell population at the time of drug addition (T0). After additional incubation of DMSO or drugs for 48 h, cells were fixed with 10% trichloroacetic acid and sulforhodamine B at 0.4% (w/v) in 1% acetic acid was added to stain cells. Unbound sulforhodamine B was washed out by 1% acetic acid and sulforhodamine B-bound cells were solubilized with 10 mmol/L Trizma base. The absorbance was read at a wavelength of 515 nm. Using the following absorbance measurements, such as time zero (T0), control growth (C), and cell growth in the presence of the drug (Tx), the percentage growth was calculated at each of the compound concentrations levels. Percentage growth inhibition was calculated as […].
# [3] = tested on: HUVEC cells; test: Sulforhodamine B (SRB) assay, HUVEC; settings: for GI50: Homo sapiens, HUVEC
# Description: as §1, §2
# [4] = Maximum tolerated dose and therapeutic index in vivo; settings: for MTD: in vivo, po
# [5] = tested on: human colon HCT116 xenograft; test: Human colon HCT116 xenograft model; settings: po; for TGI, tumor growth inhibition: n = 7-8
# Description: An in vivo study was conducted to evaluate the efficacy of compounds of formula (I) in suppressing tumor growth in a human colon HCT116 xenograft model.
# [6] = Pharmacokinetic profiles in rat; settings: in vivo
# Description: A pharmacokinetic study was conducted to evaluate the pharmacokinetic properties of compounds of formula (I).
# [7] = tested on: breast MDA-MB-231; test: Sulforhodamine B (SRB) assay, breast MDA-MB-231; type: cell-based; settings: Homo sapiens
# Description: as §1, §2
# [8] = tested on: HSP90 client proteins, i.e., EGFR, Akt, CDK-4, and HSP70, in HCT-116 tumor cells; test: Western blot of HSP90 client proteins in HCT-116 tumor cells; type: cell-based, human; settings: HCT-116 cells, 24 hours after treatment
# Description: Western blot analysis was performed to detect cell apoptotic signaling activated by substituted aromatic compounds of formula (I). Cells were harvested by scraping with lysis buffer (1 mM EGTA, 1 mM EDTA, 150 mM NaCl, 1% Triton X-100, 2.5 mM sodium pyrophosphate, 1 mM PMSF, 1 mM Na3VO4, 1 ug/mL leupeptin, 1 ug/mL aprotinin, 5 mM NaF in 20 mM Tris-HCl buffer, pH 7.5). Cell lysates were centrifuged at 13,000 g for 30 min. Total protein was determined and equal amounts of protein were separated by SDS-PAGE and immunoblotted with specific antibodies. Proteins were visualized by enhanced chemiluminescence (Amersham, Buckinghamshire, UK).
# Total cellular extracts were obtained 24 hours after treatment.
# [9] = tested on: colorectal HCT116; test: Sulforhodamine B (SRB) assay, colorectal HCT116; type: cell-based; settings: Homo sapiens
# Description: as §1, §2
# [10] = tested on: lung A549; test: Sulforhodamine B (SRB) assay, lung A549; type: cell-based, human; settings: Homo sapiens
# Description: Human cancer cells were purchased from the American Type Culture Collection (Manassas, Va., USA).
# Cells were seeded in 96-well plates in medium with 5% fetal bovine serum. […] Unbound sulforhodamine B was washed out by 1% acetic acid and sulforhodamine B-bound cells were solubilized with 10 mmol/L Trizma base. […] Using the following absorbance measurements, such as time zero (T0), control growth (C), and cell growth in the presence of the drug (Tx), the percentage growth was calculated at each of the compound concentrations levels. Percentage growth inhibition was calculated as […].
# [11] = tested on: leukemia HL60; test: MTT antiproliferative assay, HL60; type: cell-based; settings: Homo sapiens, HL-60
# [12] = tested on: bone marrow K562; test: MTT antiproliferative assay, K562; type: cell-based; settings: Homo sapiens
# [13] = tested on: lymphoblast MOLT4; test: MTT antiproliferative assay, MOLT4; type: cell-based; settings: Homo sapiens, MOLT-4
# [14] = tested on: human lung NSCLC A549 cancer xenograft; test: Human lung NSCLC A549 cancer xenograft model; type: in vivo; settings: daily oral administration
# [15] = 48 h, read-out: GI50 Liver Hep3B
# [16] = MDA-MB-231, 48 h, read-out: GI50 Breast MDA-MB-231
# [17] = MDA-MB-231, read-out: MDA-MB-231 GI50
# [18] = HCT-116, 48 h, read-out: GI50 Colorectal HCT116
# [19] = A549, 48 h, read-out: GI50 Lung A549
SMILES,IC50 [1] [nM],"GI50 [2, 15] [nM]",GI50 ([2]; read-out: Hep3B GI50) [nM],"TI, Therapeutic Index measured by GI50(HUVEC)/GI50(A549) [3]","GI50 ([3]; 48 h, read-out: GI50 HUVEC) [nM]",GI50 ([3]; read-out: HUVEC GI50) [nM],"TI, Therapeutic Index, ratio of MTD to minimum efficacious dose (MED) [4]",MTD [4] [mg/kg],"TGI, tumor growth inhibition ([5]; 100 mg/kg, qd) [%]","AUC(0-inf) ([6]; iv, 2 mg/kg) [ng·h/mL]","Vd ([6]; iv, 2 mg/kg) [L/kg]","clearance ([6]; iv, 2 mg/kg) [mL/min/kg]","half-life ([6]; iv, 2 mg/kg) [h]","AUC(0-inf) ([6]; po, 20 mg/kg) [ng·h/mL]","Cmax ([6]; po, 20 mg/kg) [ng/mL]","Tmax ([6]; po, 20 mg/kg) [h]","bioavailability ([6]; po, 20 mg/kg) [%]","half-life ([6]; po, 20 mg/kg) [h]",expression levels of the chaperone HSP70 [8],"levels of HSP90 client proteins (EGFR, Akt, CDK-4) [8]",also measured
"CC(C)c1cc(C(=O)N(C)c2ccc3c(ccn3C)c2)c(O)cc1O [Compound 20g, 2,4-dihydroxy-5-isopropyl-N-methyl-N-(1-methyl-1H-indol-5-yl)benzamide]",106 ± 7.58,570 ± 320,570 ± 320,2.9,820 ± 30,820 ± 30,<2.5,< 250,83.9,288 ± 59,4.3 ± 1.3,117 ± 23,0.7 ± 0.1,36 ± 5,12.8 ± 8.3,0.5 ± 0.4,1.3,2.2 ± 0.6,increase,substantial depletion,"GI50 [7, 16]: 100 ± 20 nM; GI50 [7, 17]: 100 ± 20 nM; GI50 [9, 18]: 700 ± 60 nM; GI50 ([9]; HCT-116, read-out: HCT116 GI50): 700 ± 60 nM; GI50 [10, 19]: 280 ± 20 nM; GI50 ([10]; A549, read-out: A549 GI50): 280 ± 20 nM"
"CCN(C(=O)c1cc(C(C)C)c(O)cc1O)c1cccnc1 [Compound 18b, N-ethyl-2,4-dihydroxy-5-isopropyl-N-(pyridin-3-yl)benzamide]",110 ± 3.13,,,,,,,250,74.3,,5.5 ± 1.1,,,,40 ± 13,6 ± 2,,,increase,substantial depletion,"IC50 [11]: 240 ± 40 nM; Loss of Body ([5]; 25 mg/kg, qd): 0%; TGI, tumor growth inhibition ([5]; 25 mg/kg, qd): 55.6%; Loss of Body ([5]; 100 mg/kg, qd): 0%; IC50 [12]: 130 ± 90 nM; AUC(0-inf) ([6]; iv, 2 mg/kg, AUC(0-inf), IV (2 mg/kg)): 520 ± 14 ng·h/mL; clearance ([6]; iv, 2 mg/kg, CL, IV (2 mg/kg)): ~64 mL/min/kg; half-life ([6]; iv, 2 mg/kg, T1/2, rat, IV (2 mg/kg)): 4 ± 1.7 h; bioavailability ([6]; oral, 20 mg/kg): 25%; AUC(0-inf) ([6]; po, 20 mg/kg, AUC(0-inf), PO (20 mg/kg)): ~1310 ng·h/mL; half-life ([6]; po, 20 mg/kg, T1/2, rat, PO (20 mg/kg)): ~27.7 h; IC50 [13]: 190 ± 10 nM; TGI ([14]; 25 mg/kg): 46.7%; TGI ([14]; 50 mg/kg): 46.9%; TGI ([14]; 100 mg/kg): 50.9%; body weight loss ([14]; 25, 50, and 100 mg/kg): without significant body weight loss; GI50 ([7]; MDA-MB-231, Table 2, SRB, read-out: MDA-MB-231 GI50): 90 ± 10 nM"
"CC(C)c1cc(C(=O)N(C)c2ccc3[nH]ccc3c2)c(O)cc1O [Compound 20b, 2,4-dihydroxy-N-(1H-indol-5-yl)-5-isopropyl-N-methylbenzamide]",115 ± 10.7,180 ± 40,180 ± 40,3.4,570 ± 20,570 ± 20,<2.5,< 250,,142 ± 25,18 ± 4.5,237 ± 37,1.3 ± 0.3,533 ± 154,82 ± 34,2.2 ± 1.8,37,7.5 ± 1.3,increase,substantial depletion,"Loss of Body ([5]; 100 mg/kg, qd × 7/5 on 2 off, Day 5): −8.5%; TGI, tumor growth inhibition ([5]; 100 mg/kg, qd × 7/5 on 2 off): 37.7%; GI50 [7, 16]: 70 ± 10 nM; GI50 [7, 17]: 70 ± 10 nM; GI50 [9, 18]: 1000 ± 490 nM; GI50 ([9]; HCT-116, read-out: HCT116 GI50): 1000 ± 490 nM; GI50 [10, 19]: 170 ± 10 nM; GI50 ([10]; A549, read-out: A549 GI50): 170 ± 10 nM"

# Reference: patent US11479528B2, “Heat shock protein 90 inhibitors” (TAIPEI MEDICAL UNIVERSITY, priority 2017, dated 2022)
